Test results reported in patent publication US4631274A, “Halovinyl cephem compounds” (Fujisawa Pharmceutical Co., Ltd., priority 1984, dated 1986).

Assays:
in vivo = settings: rat, po, 20 mg/kg
Method: Rats anesthetized with pentobarbital were fixed in supine position, and a polyethylene cannula was inserted into the bile duct. Bile samples were collected at 0 to 3, 3 to 6, and 6 to 24 hours after oral administration of 20 mg/kg of the test antibiotic. The antibiotic levels in the bile samples were bioassayed with the standard solution prepared with M/15 phosphate buffer (pH 7.0) and the biliary recovery in 24 hours were calculated.

Proteus mirabilis 18 = experiment: In vitro antibacterial activity, two-fold agar-plate dilution method (MIC); type: cell-based; settings: HI-agar, 37° C., 20 hours, read-out: MIC (minimal inhibitory concentration)
Method: (§1) In vitro antibacterial activity was determined by the two-fold agar-plate dilution method as described below.
(§2) One loopful of an overnight culture of each test strain in Trypticase-soy broth (10^8 viable cells per ml) was streaked on heart infusion agar (HI-agar) containing graded concentrations of representative test compound, and the minimal inhibitory concentration (MIC) was expressed in terms of μg/ml after incubation at 37° C. for 20 hours.

Proteus vulgaris 2 = experiment: as above; type: cell-based; settings: HI-agar, 37° C., 20 hours, read-out: MIC (minimal inhibitory concentration)
Method: as §1, §2

[1] = Urinary excretion in rats after oral administration; type: in vivo; settings: rat, urine, 20 mg/kg, bioassay, read-out: Urinary recovery in 24 hours (%)
Method: Urine of rats was collected with a urine collector at 0 to 6, and 6 to 24 hours after oral administration of 20 mg/kg of the test antibiotic. The antibiotic levels in the urine samples were bioassayed with the standard solution prepared with M/15 phosphate buffer (pH 7.0) and the urinary recovery in 24 hours was calculated.

dose excreted at 24 h (in vivo): 24.2% | MIC (Proteus mirabilis 18): < 0.025 µg/mL | MIC (Proteus vulgaris 2): < 0.025 µg/mL | dose excreted at 24 h [1]: 51.1%
SMILES: Nc1nc(/C(=N/OCC(=O)O)C(=O)NC2C(=O)N3C(C(=O)O)=C(/C=C/Cl)CSC23)cs1 (stereo not drawn) [A, 7-[2-Carboxymethoxyimino-2-(2-aminothiazol-4-yl)acetamido]-3-[(E)-2-chlorovinyl]-3-cephem-4-carboxylic acid (syn isomer)]
